# Measured values from patent US20110015162A1, “15,16-Methylene-17-hydroxy-19-nor-21-carboxylic acid-steroid Y-lactone derivative, use thereof and medicinal products containing the derivative” (Bayer Schering Pharma Aktiengesellschaft, priority 2007, published 2011).
# Like-named read-outs stand apart in the source and are kept apart here.
# How the values were obtained:
# [1] = biological target: T1, mineralocorticoid receptor (Homo sapiens, UniProt P08235); test: Mineralocorticoid receptor binding test; set-up: made in house; host or cells: Hi5 insect cells (cytosol); details: reference substance 3H-aldosterone, cytosol from MR-expressing insect cells (Hi5)
# T1 sequence (P08235 1-984): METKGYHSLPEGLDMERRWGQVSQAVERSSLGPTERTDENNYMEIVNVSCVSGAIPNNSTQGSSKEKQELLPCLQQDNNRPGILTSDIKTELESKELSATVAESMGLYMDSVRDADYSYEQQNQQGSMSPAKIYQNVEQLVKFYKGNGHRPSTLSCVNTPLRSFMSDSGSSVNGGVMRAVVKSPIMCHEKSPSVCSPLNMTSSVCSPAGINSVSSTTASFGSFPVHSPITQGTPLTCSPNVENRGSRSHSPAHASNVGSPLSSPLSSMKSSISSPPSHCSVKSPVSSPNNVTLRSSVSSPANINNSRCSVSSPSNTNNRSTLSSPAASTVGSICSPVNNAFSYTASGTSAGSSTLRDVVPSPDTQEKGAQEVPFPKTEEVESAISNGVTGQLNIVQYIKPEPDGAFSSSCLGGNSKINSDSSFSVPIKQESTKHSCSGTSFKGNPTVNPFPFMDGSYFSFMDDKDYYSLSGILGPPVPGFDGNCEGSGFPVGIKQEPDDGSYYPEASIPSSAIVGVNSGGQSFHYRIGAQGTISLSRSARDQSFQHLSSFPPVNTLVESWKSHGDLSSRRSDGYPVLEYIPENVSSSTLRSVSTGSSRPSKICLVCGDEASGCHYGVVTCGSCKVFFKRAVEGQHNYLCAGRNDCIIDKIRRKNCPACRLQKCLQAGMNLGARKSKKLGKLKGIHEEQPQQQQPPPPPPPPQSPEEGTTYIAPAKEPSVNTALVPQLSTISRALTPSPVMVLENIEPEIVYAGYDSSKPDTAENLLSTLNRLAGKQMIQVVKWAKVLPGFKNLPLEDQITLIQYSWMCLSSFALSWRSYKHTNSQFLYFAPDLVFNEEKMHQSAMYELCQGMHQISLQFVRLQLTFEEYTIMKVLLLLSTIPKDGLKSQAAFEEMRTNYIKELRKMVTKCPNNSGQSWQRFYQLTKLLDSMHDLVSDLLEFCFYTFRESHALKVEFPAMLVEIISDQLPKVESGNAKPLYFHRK
# Summary of the method: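 Competitive binding measured with cytosol from Hi5 insect cells expressing the receptor. Displacement of ^3H-aldosterone as reference ligand gave the readout.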
# [2] = biological target: T2, androgen receptor (Homo sapiens, UniProt P10275); test: Androgenic/antiandrogenic action by transactivation test (PC3 reporter cells); assay type: cell-based; set-up: expressed in transfected cells; host or cells: PC3 cells
# T2 sequence (P10275 1-920): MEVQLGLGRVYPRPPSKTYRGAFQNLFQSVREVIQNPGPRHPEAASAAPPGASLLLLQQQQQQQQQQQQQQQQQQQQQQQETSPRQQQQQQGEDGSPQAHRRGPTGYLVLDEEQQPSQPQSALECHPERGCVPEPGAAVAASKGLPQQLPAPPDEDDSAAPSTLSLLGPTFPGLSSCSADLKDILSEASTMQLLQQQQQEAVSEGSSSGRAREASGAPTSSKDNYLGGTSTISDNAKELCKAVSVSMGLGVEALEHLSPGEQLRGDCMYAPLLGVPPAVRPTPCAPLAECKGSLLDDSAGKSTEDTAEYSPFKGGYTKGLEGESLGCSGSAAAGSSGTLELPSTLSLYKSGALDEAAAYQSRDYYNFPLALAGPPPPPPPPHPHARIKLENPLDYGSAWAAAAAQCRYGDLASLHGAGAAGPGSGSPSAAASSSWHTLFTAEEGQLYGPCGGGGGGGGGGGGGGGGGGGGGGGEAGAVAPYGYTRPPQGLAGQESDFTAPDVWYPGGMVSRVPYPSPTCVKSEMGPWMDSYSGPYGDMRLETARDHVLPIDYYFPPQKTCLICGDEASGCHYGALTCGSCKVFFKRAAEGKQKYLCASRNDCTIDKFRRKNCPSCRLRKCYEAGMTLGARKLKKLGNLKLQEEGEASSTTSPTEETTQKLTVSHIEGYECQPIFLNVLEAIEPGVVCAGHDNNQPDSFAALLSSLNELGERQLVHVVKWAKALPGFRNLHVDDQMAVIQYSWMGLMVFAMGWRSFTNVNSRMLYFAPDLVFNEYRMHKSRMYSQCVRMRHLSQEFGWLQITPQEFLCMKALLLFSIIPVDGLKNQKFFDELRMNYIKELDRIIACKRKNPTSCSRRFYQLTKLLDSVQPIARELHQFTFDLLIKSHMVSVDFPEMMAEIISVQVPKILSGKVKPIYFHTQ
# Method: The test compounds were added eight hours later, and the cells were incubated with the compounds for 16 hours. The tests were carried out in triplicate. At the end of incubation the medium containing the effector was removed and replaced with lysis buffer. After luciferase assay substrate (Promega, #E1501) had been added, the 96-well plates were then put in a microplate luminometer (Pherastar, BMG Labtech), and the luminescence was measured. The IC50 values were evaluated using software for calculating dose-effect relations.
# 6. Determination of Androgenic/Antiandrogenic Action by Means of Transactivation Tests:
# The androgenic/antiandrogenic action of the test substances was determined as for the transactivation tests described above.
# The following modifications were made: In this case reporter cell lines were used (PC3 cells) that express the androgen receptor, and a reporter construct that contains luciferase under the control of a steroid hormone-responsive promoter.
# For determination of the antiandrogenic efficacy, 0.05 nM R1881 was added to the cells, in order to achieve almost maximum stimulation of the reporter gene.
# [3] = biological target: T2, androgen receptor; test: Androgen receptor binding test; set-up: expressed in transfected cells; details: reference substance 3H-testosterone
# [4] = PC-3, read-out: Androgen receptor Agonism efficacy
# [5] = PC-3, read-out: Androgen receptor Antagonism efficacy
Compound,Mineralocorticoid receptor (MR) Competition factor [1],EC50 [2],"Emax [2, 4]","Emax [2, 5]",Androgen receptor Competition factor [3]
"C[C@]12CC[C@H]3[C@@H](CCC4=CC(=O)CC[C@@H]43)[C@@H]1[C@@H]1C[C@@H]1[C@@]21C=CC(=O)O1 [Example 19, 17β-Hydroxy-15β,16β-methylene-19-nor-17α-pregna-4,20(Z)-dien-3-one-21-carboxylic acid γ-lactone]",187.0,5.3 nM,87.5%,5%,6.4
"CC[C@]12CC[C@H]3[C@@H]([C@H]4C[C@H]4C4=CC(=O)CC[C@@H]43)[C@@H]1[C@@H]1C[C@@H]1[C@@]21C=CC(=O)O1 [Example 1, 6β,7β;15β,16β-Bismethylene-17β-hydroxy-18-methyl-19-nor-17α-pregna-4,20(Z)-dien-3-one-21-carboxylic acid γ-lactone]",1.6,100 nM,46.3%,5%,30.6
"C=C[C@@H]1CC2=CC(=O)CC[C@@H]2[C@H]2CC[C@@]3(C)[C@@H]([C@@H]4C[C@@H]4[C@@]34C=CC(=O)O4)[C@@H]21 [Example 25A, 17β-Hydroxy-15β,16β-methylene-7α-vinyl-19-nor-17α-pregna-4,20(Z)-dien-3-one-21-carboxylic acid γ-lactone]",9.4,1.83 nM,73.3%,5%,1.4
"CC[C@]12CC[C@H]3[C@@H](CCC4=CC(=O)CC[C@@H]43)[C@@H]1[C@@H]1C[C@@H]1[C@@]21C=CC(=O)O1 [Example 9, 17β-Hydroxy-18-methyl-15β,16β-methylene-19-nor-17α-pregna-4,20(Z) dien-3-one-21-carboxylic acid γ-lactone]",1.1,4.7 nM,96.2%,5%,5.6
"C[C@]12CC[C@H]3[C@@H](CC4(CC4)C4=CC(=O)CC[C@@H]43)[C@@H]1[C@@H]1C[C@@H]1[C@@]21C=CC(=O)O1 [Example 22, 6,6-(1,2-Ethanediyl)-17β-hydroxy-15β,16β-methylene-19-nor-17α-pregna-4,20(Z)dien-3-one-21-carboxylic acid γ-lactone]",0.8,1.7 nM,98.6%,5%,2.0
"C=C[C@@H]1CC2=CC(=O)CC[C@@H]2[C@H]2CC[C@@]3(C)[C@@H]([C@H]4C[C@H]4[C@@]34C=CC(=O)O4)[C@@H]21 [Example 16A, 17β-Hydroxy-7α-vinyl-15α,16α-methylene-19-nor-17α-pregna-4;20(Z)-dien-3-one-21-carboxylic acid γ-lactone]",2.0,12 nM,62.6%,5%,2.6
